70 molecules from patent US20220288065A1, “MONOCYCLIC AGONISTS OF STIMULATOR OF INTERFERON GENES STING” (The Scripps Research Institute, priority 2019, published 2022) can be followed below.

The term EC50 denotes the concentration at which the effect is half-maximal. Lower therefore signals a more potent agent.

Molecules are shown by their SMILES.

This assay relates to THP-1 Lucia ISG cells. Kind of assay: ISG-LUC activation assay (ISRE-luciferase assay). The class given is cell-based. The settings on record: Homo sapiens, THP1-Lucia ISG, activity score based upon potency and efficacy data, 24 hours. The text has this: We have established a robust platform for identifying non-nucleotide small molecule STING agonists. This has been established using a primary assay involving a human THP-1 cell line carrying an IRF-inducible reporter with 5 copies of the IFN signaling response element. Counter screens, involving alternative reporter constructs, rodent cell-based assays, as well as cGAS and STING knock-out cell lines, are used to eliminate luciferase artifacts and ensure human-rodent cross species reactivity, as well as pathway selectivity. Biochemical assays, involving cGAS enzymatic activity and STING protein binding assays, are used to identify the specific target of identified hits.
Tissue culture. Wild-type (cat. no. thpl-isg) and STING KO (cat. no. thpd-kostg) THP-1-Lucia ISG cells were purchased from Invivogen and maintained in growth media consisting of RPMI 1640, 2 mM L-glutamine, 25 mM HEPES, 10% heat-inactivated fetal bovine serum (FBS), 1,000 units/ml penicillin, 1,000 μg/ml streptomycin, 0.25 μg/ml Amphotericin B, and 100 μg/ml zeocin unless otherwise stated.
ISRE-luciferase assay. THP-1 Lucia ISG cells were resuspended in low-serum growth media (2% FBS) at a density of 5×10^5 cells/ml and treated with test article or vehicle (DMSO). 50 μL of cells were seeded into each well of a 384-well white greiner plates and incubated for 24 hours. To evaluate expression of the luciferase reporter, 30 μl of Quanti-luc (Invivogen) detection reagent was added to each well and luminescence was read using an Envision plate reader (Perkin Elmer) set with an integration time of 0.1 seconds.
The molecule `COC(=O)c1cc(F)c(F)cc1NC(=O)c1cc(CN)c(-n2ccnc2)nn1` [Compound 65] gave an EC50 of over 1 µM. Next, `COC(=O)c1cc(F)c(F)cc1NC(=O)c1ccc(-c2cn[nH]c2)nn1` [Compound 58]: under 0.9 µM; `O=C(Nc1cc(Cl)c(F)cc1C(=O)O)c1ccc(-c2cn[nH]c2)nn1` [Compound 67]: over 1 µM. Take `COC(=O)c1cc(F)c(F)cc1NC(=O)c1nnc(-n2ccnc2)cc1CO` [Compound 7]: the half-maximal effective concentration (EC50) is under 0.9 µM. Take `C#Cc1cc(NC(=O)c2cn(-c3cn[nH]c3)nn2)c(C(=O)O)cc1F` [Compound 36]: the EC50 is over 1 µM. `C#Cc1cc(NC(=O)c2ccc(-n3ccnc3)nn2)c(C(=O)OC(C)C)cc1F` [Compound 96] yielded a concentration giving a half-maximal response (EC50) of over 1 µM. `COC(=O)c1cc(Cl)c(Cl)cc1NC(=O)c1cn(-c2cn[nH]c2)nn1` [Compound 23] showed a 50% effective concentration (EC50) of under 0.9 µM. In the case of `O=C(Nc1cc(F)c(F)cc1C(=O)O)c1ccc(-c2cn[nH]c2)nn1` [Compound 63], the EC50 is over 1 µM. `COC(=O)c1cc(Cl)c(Cl)cc1NC(=O)c1nnc(-n2ccnc2)cc1CN` [Compound 24] displayed a 50% effective concentration (EC50) of under 0.9 µM.

In turn, `C#Cc1cc(NC(=O)c2ccc(-n3ccnc3)nn2)c(C(=O)O)nc1Cl` [Compound 77] gave an EC50 of under 0.9 µM. `C#Cc1cc(NC(=O)c2cnc(-c3cn[nH]c3)cn2)c(C(=O)OC)cc1F` [Compound 55] displayed a 50% effective concentration (EC50) of over 20 µM.

The molecule `C#Cc1cc(NC(=O)c2ccc(-c3cn[nH]c3)nn2)c(C(=O)O)cc1F` [Compound 46] returned a 50% effective concentration (EC50) of over 1 µM. The molecule `C=Cc1cc(NC(=O)c2ccc(-c3cn[nH]c3)nn2)c(C(=O)O)cc1F` [Compound 44] returned a half-maximal effective concentration (EC50) of under 0.9 µM. `C#Cc1cc(NC(=O)c2ccc(-n3ccnc3)nn2)c(C(=O)O)cc1C#N` [Compound 100]: the half-maximal effective concentration (EC50) was under 3 µM. With `C#Cc1cc(NC(=O)c2ccc(-n3ccnc3)nn2)c(C(=O)OCCN2CCOCC2)cc1F` [Compound 103], the EC50 was under 0.9 µM.

In the case of `O=C(Nc1cc(Cl)c(Cl)cc1C(=O)O)c1ccc(-c2cn[nH]c2)nn1` [Compound 49], the 50% effective concentration (EC50) is over 1 µM. In turn, `COC(=O)c1cc(F)c(F)cc1NC(=O)c1cc(NCc2ccc(OC)cc2)cnn1` [Compound 59] gave a concentration giving a half-maximal response (EC50) of under 0.9 µM.

On to `Cc1nc(C(=O)O)c(NC(=O)c2ccc(-n3ccnc3)nn2)cc1Cl` [Compound 91], for which the concentration giving a half-maximal response (EC50) is over 1 µM. The molecule `C/C=C/c1cc(NC(=O)c2ccc(-n3ccnc3)nn2)c(C(=O)O)nc1Cl` [Compound 101] came in with a concentration for a half-maximal effect (EC50) of under 0.9 µM. For the molecule `COC(=O)c1cc(Cl)c(Cl)cc1NC(=O)c1ccc(-c2c[nH]nn2)nn1` [Compound 50], the EC50 is under 0.9 µM. For `CCOC(=O)Nc1ccc(C(=O)Nc2cc(F)c(F)cc2C(=O)O)nn1` [Compound 11] the value was over 1 µM; for `C#Cc1cc(NC(=O)c2ncc(-c3cn[nH]c3)cn2)c(C(=O)OC)cc1F` [Compound 56], over 20 µM; for `C#Cc1cc(NC(=O)c2ccc(-n3ccnc3)nn2)c(C(=O)O)nc1F` [Compound 92], under 0.9 µM. `COC(=O)NCc1cc(C(=O)Nc2cc(Cl)c(Cl)cc2C(=O)OC)nnc1-n1ccnc1` [Compound 47]: the EC50 was over 1 µM. The molecule `COC(=O)c1nc(Cl)c(Cl)cc1NC(=O)c1ccc(-c2cc[nH]n2)nn1` [Compound 34] yielded a 50% effective concentration (EC50) of under 0.9 µM.

As to `COC(=O)c1cc(F)c(F)cc1NC(=O)c1cc(N)cnn1` [Compound 20], the EC50 is under 0.9 µM. Take `N#Cc1cc(C(=O)O)c(NC(=O)c2ccc(-n3ccnc3)nn2)cc1Cl` [Compound 99]: the EC50 was under 3 µM. For `C#Cc1cc(NC(=O)c2ccc(-c3cn[nH]c3)nn2)c(-c2c(O)c(=O)c2=O)cc1F` [Compound 83] the value was under 0.9 µM.

The molecule `CC#Cc1cc(NC(=O)c2ccc(-n3ccnc3)nn2)c(C(=O)O)nc1Cl` [Compound 104] returned a concentration for a half-maximal effect (EC50) of under 0.9 µM.

Molecule `C#Cc1cc(NC(=O)c2ccc(-n3ccnc3)nn2)c(C(=O)OCC)cc1F` [Compound 85] had a concentration giving a half-maximal response (EC50) of under 0.9 µM. Consider `O=C(Nc1cc(Cl)c(Cl)cc1C(=O)O)c1ccc(-c2c[nH]nn2)nn1` [Compound 51], for which the EC50 was over 1 µM. In turn, `COC(=O)c1cc(Cl)c(Cl)cc1NC(=O)c1cn(-c2cnn(C(=O)OC(C)(C)C)c2)nn1` [Compound 22] had a 50% effective concentration (EC50) of over 1 µM.

As to `COC(=O)c1cc(Cl)c(Cl)cc1NC(=O)c1cc(CN)c(-n2ccnc2)nn1` [Compound 26], the EC50 was under 0.9 µM. `CS(=O)(=O)NCCNc1cc(C(=O)Nc2cc(F)c(F)cc2C(=O)O)nnc1-n1ccnc1` [Compound 6] displayed a 50% effective concentration (EC50) of over 1 µM. For `C#Cc1cc(NC(=O)c2ccc(-n3ccnc3)nn2)c(C(=O)OCC)nc1Cl` [Compound 76] the value was under 0.9 µM. Take `C#Cc1cc(NC(=O)c2ccc(-n3ccnc3)nn2)c(C(=O)OC(C)OC(=O)OCC)nc1Cl` (stereo not shown) [Compound 102]: the EC50 is under 0.9 µM.

Take `O=C(Nc1cc(Cl)c(Cl)nc1C(=O)O)c1ccc(-n2ccnc2)nn1` [Compound 82]: the EC50 was under 0.9 µM. Take `C#Cc1cc(NC(=O)c2ccc(-c3cn[nH]c3)nn2)c(C(=O)O)cc1Cl` [Compound 53]: the concentration for a half-maximal effect (EC50) is over 1 µM. `C#Cc1cc(NC(=O)c2ccc(-c3cn[nH]c3)nn2)c(-c2nn[nH]n2)cc1F` [Compound 84] displayed an EC50 of over 1 µM.

Take `COC(=O)c1cc(F)c(F)cc1NC(=O)c1ccc(CC#N)nn1` [Compound 9]: the EC50 is over 1 µM. For the molecule `C#Cc1cc2nc(-c3ccc(-n4ccnc4)nn3)oc(=O)c2nc1Cl` [Compound 93], the EC50 is under 3 µM. Consider `N#Cc1cc(C(=O)O)c(NC(=O)c2ccc(-c3cn[nH]c3)nn2)cc1Cl` [Compound 70], for which the EC50 was over 20 µM. For `C#Cc1cc(NC(=O)c2ccc(-n3ccnc3)nn2)c(C(=O)O)cc1F` [Compound 79] the value was under 0.9 µM; for `COC(=O)c1cc(F)c(F)cc1NC(=O)c1ccc(-c2cccnc2)nn1` [Compound 10], over 1 µM; for `COC(=O)c1cc(F)c(F)cc1NC(=O)c1cc(C(N)=O)cnn1` [Compound 16], over 1 µM. Molecule `C#Cc1cc2nc(-c3ccc(-n4ccnc4)nn3)oc(=O)c2cc1F` [Compound 75] yielded an EC50 of under 0.9 µM.

The molecule `C#Cc1cc(NC(=O)c2ccc(-n3ccnc3)nn2)c(C(=O)O)cc1Cl` [Compound 81] returned a half-maximal effective concentration (EC50) of under 0.9 µM. In turn, `COC(=O)c1cc(C#N)c(Cl)cc1NC(=O)c1ccc(-c2cn[nH]c2)nn1` [Compound 68] displayed an EC50 of under 0.9 µM.

For `COC(=O)c1cc(Cl)c(F)cc1NC(=O)c1ccncn1` [Compound 45], the EC50 is over 1 µM.

In turn, `COC(=O)c1cc(C#N)c(Cl)cc1NC(=O)c1ccc(-c2c[nH]nn2)nn1` [Compound 30] came in with an EC50 of under 0.9 µM. In turn, `COC(=O)c1cc(Cl)c(Cl)cc1NC(=O)c1ccc(-n2ccnc2)cn1` [Compound 25] registered a concentration giving a half-maximal response (EC50) of over 1 µM.

`COC(=O)c1cc(Cl)c(Cl)cc1NC(=O)c1nc(-c2cn[nH]c2)no1` [Compound 37] gave an EC50 of under 3 µM. Molecule `C#Cc1cc(NC(=O)c2ccc(-n3ccnc3)nn2)c(C(=O)OC(C)OC(=O)OCC)cc1F` (stereo not shown) [Compound 86] had an EC50 of under 0.9 µM. Consider `C#Cc1cc(NC(=O)c2ccc(-n3ccnc3)nn2)c(C(=O)O)nc1C` [Compound 90], for which the concentration giving a half-maximal response (EC50) is under 3 µM.

In the case of `C#Cc1cc(NC(=O)c2ccc(-c3cn[nH]c3)nn2)c(C(=O)O)nc1Cl` [Compound 38], the EC50 is under 0.9 µM.

Turning to `COC(=O)c1cc(F)c(F)cc1NC(=O)c1ccc(CO)nn1` [Compound 17], the EC50 was under 3 µM. As to `NC(=O)c1ccc(C(=O)Nc2cc(F)c(F)cc2C(=O)O)cn1` [Compound 13], the EC50 was over 20 µM. `N#Cc1n[nH]cc1-c1ccc(C(=O)Nc2cc(Cl)c(F)cc2C(=O)O)nn1` [Compound 28] came in with an EC50 of over 1 µM.

Consider `O=C(Nc1cc(Cl)c(F)cc1C(=O)O)c1ccc(-c2ccns2)nn1` [Compound 31], for which the EC50 was under 0.9 µM. As for `COC(=O)c1cc(F)c(F)cc1NC(=O)c1ccc(-c2ccncc2)nn1` [Compound 60], the concentration for a half-maximal effect (EC50) was under 0.9 µM. `COC(=O)c1cc(Cl)c(OC)cc1NC(=O)c1cc(N)ncn1` [Compound 12]: the EC50 was over 1 µM. With `COC(=O)c1cc(Cl)c(Cl)cc1NC(=O)c1ccc(-c2nn(C)cc2C#N)nn1` [Compound 73], the half-maximal effective concentration (EC50) was over 20 µM. In the case of `C#Cc1cc(NC(=O)c2ccc(-n3ccnc3)nn2)c(C(=O)NCCO)cc1F` [Compound 106], the EC50 was over 20 µM.

In the case of `COC(=O)c1cc(F)c(F)cc1NC(=O)c1ccc(C#N)nn1` [Compound 5], the 50% effective concentration (EC50) was over 1 µM. For `COC(=O)c1cc(Cl)c(Cl)cc1NC(=O)c1cc(CCCN)c(-n2ccnc2)nn1` [Compound 74] the value was over 1 µM; for `O=C(Nc1cc(Cl)c(F)cc1C(=O)O)c1ccc(-c2cnsc2)nn1` [Compound 29], under 0.9 µM. Take `C#Cc1cc(NC(=O)c2cn(-c3cn[nH]c3)nn2)c(C(=O)OC)cc1F` [Compound 35]: the EC50 is under 0.9 µM. For `C#Cc1cc(NC(=O)c2ncc(-c3cn[nH]c3)cn2)c(C(=O)O)cc1F` [Compound 108], the EC50 is over 20 µM. With `O=C(Nc1cc(Cl)c(Cl)nc1C(=O)O)c1ccc(-c2cc[nH]n2)nn1` [Compound 33], the EC50 is over 1 µM. Next, `COC(=O)c1cc(F)c(F)cc1NC(=O)c1ccc(-c2ccnc(N)c2)nn1` [Compound 40]: under 0.9 µM.
